Experimental findings from patent US12043602B2, “Fendiline derivatives” (The Board of Regents of the University of Texas System, priority 2019, dated 2024) are described below.

Several values for one entry are separate records, joined by “and”; a condition that tells them apart may be missing. Identical values can stand only once. Like-named read-outs stand apart in the source and are kept apart here.

The target in one data set is mGFP-K-RASG12V (Homo sapiens (Human), UniProt P01116, G12V). Put plainly: K-Ras mislocalization assay (confocal microscopy, Manders coefficient). Type of data set: cell-based. On the set-up: key to Emax: Manders coefficient: fraction of mCherry-CAAX co-localizing with GFP-K-Ras. The settings on record: for IC50: 48 h treatment, read-out: IC50 (μM), KRASG12V mislocalization; for Emax: maximal effect, Manders coefficient. The protocol:
Madine Darby Canine Kidney epithelial cells (MDCK) stably co-expressing mGFP-tagged full length oncogenic mutant K-Ras (GFP—K-RASG12V) or mGFP-LactC2 (peptide probe for phosphatidylserine) and mCherry-tagged to the amino acids 179-189 of H-RasC181S, C184S (mCherry-CAAX, localizes primarily to endomembranes) were grown in DMEM-high glucose/sodium pyruvate/10% FBS. The medium was supplemented with 1× Penicillin/Streptomycin for fluorescence microscopy assays, to avoid any microbial contamination from the test compounds added. KLE and Hec50 cells were maintained in DMEM-F-12 medium supplemented with 10% FBS. Hec-1A and Hec-1B cells were grown in McCoy's 5a medium supplemented with 10% FBS. ESS-1 cells were grown in RPMI 1640 medium supplemented with 20% FBS. MPanc96 cells were grown in DMEM supplemented with 10% FBS, MiaPaCa-2 cells in DMEM supplemented with 10% FBS and 2.5% horse serum and all other cell lines were grown in RPMI 1640 supplemented with 10% FBS. All cancer cell media were supplemented with ×Penicillin/Streptomycin. All cell lines were grown at 37° C. with 5% CO2.
MDCK co-expressing GFP—K-RASG12V or LactC2 and mCherry-CAAX were grown on coverslips, treated with 0.1% vehicle (DMSO) or various concentrations of drugs for 48 h, and fixed with 4% paraformaldehyde. The coverslips were mounted in mowiol and imaged by confocal microscopy (Nikon A1) using a 60× objective. Using ImageJ software v1.42q, images were converted to 8-bit, and a threshold to a control pixel of each image was set. As a measure of K-Ras/LactC2 mislocalization, the fraction of mCherry-CAAX co-localizing with mGFP-K-RASG12V was calculated using a Manders coefficient plugin downloaded from Wright Cell Image Facility. The fraction of mCherry-CAAX co-localizing with mGFP-RASG12V (Mander's coefficient) is proportional to K-Ras mislocalization.

Data set [1] has as its system MDCK cells co-expressing GFP-K-RASG12V and mCherry-CAAX. Put plainly: Cytotoxicity in mislocalization screen (death of all cells in well). As to conditions: drug caused death of all cells in well at 30 μM.
Where [2] appears, read: batch 4 compounds, MDCK cells, 48 h, title calls it IC50, read-out: EC50.

Consider `CCN(CC=C(c1ccccc1)c1ccccc1)[C@H](C)c1ccc(OC)cc1` [NY0429, (R)-N-ethyl-N-(1-(4-methoxyphenyl)ethyl)-3,3-diphenylprop-2-en-1-amine], for which the IC50 (commonly the point on the concentration scale where inhibition reaches its midpoint) at mGFP-K-RASG12V (MDCK cells, listed as 11b) worked out at 10.6 µM; on mGFP-K-RASG12V (MDCK cells), 10.6 µM. Besides, the Emax on mGFP-K-RASG12V (MDCK cells, 48 h) was 0.835; on mGFP-K-RASG12V (MDCK cells, 48 h, listed as 11b), 0.84 ± 0.02. The “Cytotoxic at 30 μM” value in data set [1] is “No”.
For `CCN(CC=C(c1ccccc1)c1ccccc1)[C@@H](C)c1ccc(OC)cc1` [NY0431], on mGFP-K-RASG12V (MDCK cells), the IC50 is 2.91 µM. The Emax at mGFP-K-RASG12V (MDCK cells, 48 h) is reported as 0.756. For the same molecule, the “Cytotoxic at 30 μM” value in data set [1] is “No”.
For the molecule `COc1ccc([C@H](C)N(CC=C(c2ccccc2)c2ccccc2)CCN(C)C)cc1` [NY0434], at mGFP-K-RASG12V (MDCK cells), the concentration for half-maximal inhibition (IC50) was 4.69 µM. The Emax at mGFP-K-RASG12V (MDCK cells, 48 h) was 0.835. The “Cytotoxic at 30 μM” value in data set [1] is given as “No”.
For the molecule `COc1ccc([C@@H](C)N(CC=C(c2ccccc2)c2ccccc2)CCN(C)C)cc1` [NY0435, (R)-N^1-(3,3-diphenylallyl)-N^1-(1-(4-methoxyphenyl)ethyl)-N^2,N^2-dimethylethane-1,2-diamine], the IC50 at mGFP-K-RASG12V (MDCK cells, listed as 12a) amounted to 11.2 µM; at mGFP-K-RASG12V (MDCK cells), 11.2 µM. The Emax at mGFP-K-RASG12V (MDCK cells, 48 h) came to 0.658; on mGFP-K-RASG12V (MDCK cells, 48 h, listed as 12a), 0.66 ± 0.01. The “Cytotoxic at 30 μM” value in data set [1] is on record as “Yes”.
In the case of `COc1ccc([C@H](C)N(CC=C(c2ccccc2)c2ccccc2)CCN2CC2)cc1` [NY0436], at mGFP-K-RASG12V (MDCK cells), the IC50 was 14 µM. Moreover, the Emax on mGFP-K-RASG12V (MDCK cells, 48 h) was determined as 0.716. In addition, the “Cytotoxic at 30 μM” value in data set [1] was “No”.
For the molecule `COc1ccc([C@@H](C)N(CC=C(c2ccccc2)c2ccccc2)CCCC=O)cc1` [NY0445, (R)-4-((3,3-diphenylallyl)(1-(4-methoxyphenyl)ethyl)amino)butanal], on mGFP-K-RASG12V (MDCK cells), the IC50 turned out to be 2.02 µM. Moreover, on mGFP-K-RASG12V (MDCK cells, 48 h), the Emax was 0.694. Also, the “Cytotoxic at 30 μM” value in data set [1] is “No”.
In the same order, the values of `COc1ccc([C@@H](C)N(CC=C(c2ccccc2)c2ccccc2)CCCCO)cc1` [NY0448, (R)-4-((3,3-diphenylallyl)(1-(4-methoxyphenyl)ethyl)amino)butan-1-ol] are 12.7 µM, 0.777 and “Yes”.
Consider `COc1ccc([C@@H](C)N(CC=C(c2ccccc2)c2ccccc2)CCCCN2CCN(C)CC2)cc1` [NY0449, (R)-N-(3,3-diphenylallyl)-N-(1-(4-methoxyphenyl)ethyl)-4-(4-methylpiperazin-1-yl)butan-1-amine], for which the “KRAS PM localization inhibition activity (in words)” value at mGFP-K-RASG12V is reported as “significantly decreased potency”. Besides, the Emax at mGFP-K-RASG12V (MDCK cells, 48 h) came to 0.810; at mGFP-K-RASG12V (MDCK cells, 48 h, listed as 25), 0.81 ± 0.03. Besides, in data set [1], the “Cytotoxic at 30 μM” value was “Yes”.
Regarding `COc1cccc([C@@H](C)N(CC=C(c2ccccc2)c2ccccc2)CCN2CCN(C)CC2)c1` [NY0452, (R)-N-(1-(3-methoxyphenyl)ethyl)-N-(2-(4-methylpiperazin-1-yl)ethyl)-3,3-diphenylprop-2-en-1-amine], the IC50 was 2.8 µM at mGFP-K-RASG12V (MDCK cells, listed as 15c) and 2.81 µM on mGFP-K-RASG12V (MDCK cells). Further, the Emax on mGFP-K-RASG12V (MDCK cells, 48 h) was 0.752; at mGFP-K-RASG12V (MDCK cells, 48 h, listed as 15c), 0.75 ± 0.04. Also, the “Cytotoxic at 30 μM” value in data set [1] was “Yes”.
Turning to `COc1ccc([C@H](C)N(CC=C(c2ccccc2)c2ccccc2)CCN2CCN(C)CC2)cc1` [NY0454, (S)-N-(1-(4-methoxyphenyl)ethyl)-N-(2-(4-methylpiperazin-1-yl)ethyl)-3,3-diphenylprop-2-en-1-amine], the IC50 at mGFP-K-RASG12V (MDCK cells, listed as 15a) stood at 1.2 µM; at mGFP-K-RASG12V (MDCK cells), 1.24 µM. Also, the Emax on mGFP-K-RASG12V (MDCK cells, 48 h) was 0.827; on mGFP-K-RASG12V (MDCK cells, 48 h, listed as 15a), 0.83 and 0.83 ± 0.02. Further, the “fold potency loss / decreased potency” value on mGFP-K-RASG12V (versus 12f (NY0244)) came to 12 fold. In addition, the “Cytotoxic at 30 μM” value in data set [1] was “Yes”.
As for `COc1ccc([C@@H](C)N(CC=C(c2ccccc2)c2ccccc2)CCCO)cc1` [NY0479, (R)-3-((3,3-diphenylallyl)(1-(4-methoxyphenyl)ethyl)amino)propan-1-ol], on mGFP-K-RASG12V (setting [2]), the EC50 (commonly the midpoint of the concentration-response curve) is 1.59 µM. On mGFP-K-RASG12V (MDCK cells, 48 h), this molecule yielded an Emax of 0.871. In data set [1], the “Cytotoxic at 30 μM” value is listed as “No”.
For the molecule `COc1ccc([C@@H](C)N(CC=C(c2ccccc2)c2ccccc2)CCCN2CCCC2)cc1` [NY0502, (R)-N-(1-(4-methoxyphenyl)ethyl)-3,3-diphenyl-N-(3-(pyrrolidin-1-yl)propyl)prop-2-en-1-amine], the concentration for a half-maximal effect (EC50) at mGFP-K-RASG12V (setting [2]) turned out to be 1.78 µM. This molecule registered an Emax at mGFP-K-RASG12V (MDCK cells, 48 h) of 0.878. For the same molecule, the “Cytotoxic at 30 μM” value in data set [1] is on record as “Yes”.
In the case of `CCNC(=O)N(CC=C(c1ccccc1)c1ccccc1)[C@H](C)c1ccc(OC)cc1` [NY0504, (R)-1-(3,3-diphenylallyl)-3-ethyl-1-(1-(4-methoxyphenyl)ethyl)urea], the 50% effective concentration (EC50) on mGFP-K-RASG12V (setting [2]) is 0.91 µM. Besides, on mGFP-K-RASG12V (MDCK cells, 48 h), the Emax was found to be 0.845. Moreover, in data set [1], the “Cytotoxic at 30 μM” value is on record as “No”.
Turning to `C[C@H](c1ccc(F)cc1)N(CC=C(c1ccccc1)c1ccccc1)CCN1CCN(C)CC1` [NY0505, (R)-N-(1-(4-fluorophenyl)ethyl)-N-(2-(4-methylpiperazin-1-yl)ethyl)-3,3-diphenylprop-2-en-1-amine], the IC50 on mGFP-K-RASG12V (MDCK cells) worked out at 1.5 µM. For the same molecule, on mGFP-K-RASG12V (setting [2]), the EC50 is 1.51 µM. Also, the Emax on mGFP-K-RASG12V (MDCK cells, 48 h) is given as 0.832; at mGFP-K-RASG12V (MDCK cells, 48 h, listed as 15e), 0.83 ± 0.02. Moreover, the “Cytotoxic at 30 μM” value in data set [1] is listed as “Yes”.
Take `CCCCNC(=O)N(CC=C(c1ccccc1)c1ccccc1)[C@H](C)c1ccc(OC)cc1` [NY0507, (R)-3-butyl-1-(3,3-diphenylallyl)-1-(1-(4-methoxyphenyl)ethyl)urea]: at mGFP-K-RASG12V (setting [2]), the EC50 was determined as 1.69 µM. For the same molecule, at mGFP-K-RASG12V (MDCK cells, 48 h), the Emax is given as 0.858. In data set [1], the “Cytotoxic at 30 μM” value is reported as “No”.
Take `C(CNC1(c2ccccc2)CCCCC1)=C(c1ccccc1)c1ccccc1` [NY0514, N-(3,3-diphenylallyl)-1-phenylcyclohexan-1-amine]: the EC50 on mGFP-K-RASG12V stood at 1.34 µM. In addition, the Emax on mGFP-K-RASG12V (MDCK cells, 48 h) is 0.802. Moreover, the “Cytotoxic at 30 μM” value in data set [1] is given as “No”.
Consider `C[C@H](c1ccc(Cl)cc1)N(CC=C(c1ccccc1)c1ccccc1)CCN1CCN(C)CC1` [NY0518, (R)-N-(1-(4-chlorophenyl)ethyl)-N-(2-(4-methylpiperazin-1-yl)ethyl)-3,3-diphenylprop-2-en-1-amine], for which the half-inhibitory concentration (IC50) on mGFP-K-RASG12V (MDCK cells) amounted to 3.8 µM. The EC50 at mGFP-K-RASG12V (setting [2]) came to 3.84 µM. The Emax turned out to be 0.695 on mGFP-K-RASG12V (MDCK cells, 48 h) and 0.70 ± 0.02 at mGFP-K-RASG12V (MDCK cells, 48 h, listed as 15f). For the same molecule, in data set [1], the “Cytotoxic at 30 μM” value is “Yes”.
As for `C[C@H](c1ccc(Cl)cc1)N(CC=C(c1ccccc1)c1ccccc1)CCN1CCCC1` [NY0519, (R)-N-(1-(4-chlorophenyl)ethyl)-3,3-diphenyl-N-(2-(pyrrolidin-1-yl)ethyl)prop-2-en-1-amine], the 50% effective concentration (EC50) at mGFP-K-RASG12V (setting [2]) is 4.36 µM. The same molecule returned an Emax at mGFP-K-RASG12V (MDCK cells, 48 h) of 0.553. The “Cytotoxic at 30 μM” value in data set [1] is recorded as “Yes”.
For `COc1ccc([C@@H](C)N(CC=C(c2ccccc2)c2ccccc2)C(=O)NC2CCCCC2)cc1` [NY0521, (R)-3-cyclohexyl-1-(3,3-diphenylallyl)-1-(1-(4-methoxyphenyl)ethyl)urea], the Emax at mGFP-K-RASG12V (MDCK cells, 48 h) amounted to 0.816. Besides, the “Cytotoxic at 30 μM” value in data set [1] is reported as “No”.
For `C[C@H](c1ccc([N+](=O)[O-])cc1)N(CC=C(c1ccccc1)c1ccccc1)CCN1CCN(C)CC1` [NY0522, (R)-N-(2-(4-methylpiperazin-1-yl)ethyl)-N-(1-(4-nitrophenyl)ethyl)-3,3-diphenylprop-2-en-1-amine], the IC50 on mGFP-K-RASG12V (MDCK cells) worked out at 5.2 µM. On mGFP-K-RASG12V (setting [2]), the EC50 stood at 5.17 µM. Also, the Emax was determined as 0.621 on mGFP-K-RASG12V (MDCK cells, 48 h) and 0.62 ± 0.02 at mGFP-K-RASG12V (MDCK cells, 48 h, listed as 15h). Further, the “Cytotoxic at 30 μM” value in data set [1] is recorded as “Yes”.
As for `C[C@@H](NCCN1c2ccccc2CCc2ccccc21)c1ccc(F)cc1` [NY0552, (R)-2-(10,11-dihydro-5H-dibenzo[b,f]azepin-5-yl)-N-(1-(4-fluorophenyl)ethyl)ethan-1-amine], the EC50 on mGFP-K-RASG12V (setting [2]) was 4.05 µM. In addition, the Emax at mGFP-K-RASG12V (MDCK cells, 48 h) was 0.426. The “Cytotoxic at 30 μM” value in data set [1] was “No”.
